The nature of data set [1]: Inhibition of class 1 HDAC in human NB4 cells assessed as levels of histone H3 acetylation at lysine 9/14 at 1 uM after 30 hrs by Western blot analysis relative to control.
In the next data set the target is T1, Histone deacetylase 8 (Homo sapiens, UniProt Q9BY41).
T1 sequence (Q9BY41 whole entry): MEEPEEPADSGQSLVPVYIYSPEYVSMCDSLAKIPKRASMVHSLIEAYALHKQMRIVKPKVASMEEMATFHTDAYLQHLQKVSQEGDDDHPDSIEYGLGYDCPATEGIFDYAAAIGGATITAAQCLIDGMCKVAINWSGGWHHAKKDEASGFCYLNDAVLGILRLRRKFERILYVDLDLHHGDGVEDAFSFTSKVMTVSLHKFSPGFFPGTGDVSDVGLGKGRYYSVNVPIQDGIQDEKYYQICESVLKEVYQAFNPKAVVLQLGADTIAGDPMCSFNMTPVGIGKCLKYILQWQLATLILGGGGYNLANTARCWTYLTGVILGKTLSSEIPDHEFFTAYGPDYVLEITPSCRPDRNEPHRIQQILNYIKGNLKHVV
As to the kind of experiment: Inhibition of human recombinant HDAC8 using fluor de Lys(R) as substrate after 90 mins by fluorescence-based assay.

For data set [2], the species on record is Homo sapiens. Put plainly: Selectivity ratio of IC50 for human recombinant C-terminal His/FLAG-tagged full length HDAC1 to IC50 for N-terminal GST-tagged full length HDAC6.
In data set [3] the target is T2, Protein deacetylase HDAC6 (Homo sapiens, UniProt Q9UBN7).
T2 sequence (Q9UBN7 whole entry): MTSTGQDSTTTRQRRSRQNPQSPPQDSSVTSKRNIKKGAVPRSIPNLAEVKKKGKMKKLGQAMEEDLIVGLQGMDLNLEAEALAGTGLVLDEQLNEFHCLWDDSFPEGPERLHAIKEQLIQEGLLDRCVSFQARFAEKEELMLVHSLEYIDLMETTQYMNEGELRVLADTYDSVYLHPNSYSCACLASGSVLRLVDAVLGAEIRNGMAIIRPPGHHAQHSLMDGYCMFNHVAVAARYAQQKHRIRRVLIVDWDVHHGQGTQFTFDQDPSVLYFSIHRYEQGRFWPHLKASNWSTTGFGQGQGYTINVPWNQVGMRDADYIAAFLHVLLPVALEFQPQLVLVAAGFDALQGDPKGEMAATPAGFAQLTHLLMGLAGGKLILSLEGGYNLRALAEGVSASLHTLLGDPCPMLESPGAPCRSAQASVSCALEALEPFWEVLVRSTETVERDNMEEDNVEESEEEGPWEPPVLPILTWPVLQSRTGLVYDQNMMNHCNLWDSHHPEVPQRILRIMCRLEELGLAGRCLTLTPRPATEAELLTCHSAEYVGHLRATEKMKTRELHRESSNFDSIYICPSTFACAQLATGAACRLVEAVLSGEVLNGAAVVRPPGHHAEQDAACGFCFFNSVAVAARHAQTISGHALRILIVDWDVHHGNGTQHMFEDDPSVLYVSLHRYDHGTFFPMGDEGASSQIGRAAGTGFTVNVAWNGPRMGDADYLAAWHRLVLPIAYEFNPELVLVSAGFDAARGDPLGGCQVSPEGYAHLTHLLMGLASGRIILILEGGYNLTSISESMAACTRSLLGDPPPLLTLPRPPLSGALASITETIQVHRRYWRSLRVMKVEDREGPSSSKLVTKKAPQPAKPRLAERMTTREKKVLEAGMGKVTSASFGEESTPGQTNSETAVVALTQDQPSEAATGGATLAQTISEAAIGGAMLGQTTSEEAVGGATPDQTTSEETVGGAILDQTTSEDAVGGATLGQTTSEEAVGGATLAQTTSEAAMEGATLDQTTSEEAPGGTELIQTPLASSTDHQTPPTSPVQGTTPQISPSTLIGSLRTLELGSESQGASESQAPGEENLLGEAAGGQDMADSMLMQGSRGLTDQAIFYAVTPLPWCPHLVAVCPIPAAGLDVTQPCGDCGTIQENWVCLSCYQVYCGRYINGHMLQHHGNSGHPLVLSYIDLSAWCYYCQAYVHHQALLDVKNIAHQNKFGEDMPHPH
Put plainly: Inhibition of human recombinant N-terminal GST-tagged full length HDAC6 expressed in insect SF9 cells using fluorogenic ZMAL as substrate after 90 mins by fluorescence-based assay.

In a further data set the target is Histone deacetylase 1 (Homo sapiens, UniProt Q13547). Put plainly: Inhibition of human recombinant C-terminal His/FLAG-tagged full length HDAC1 expressed in insect SF9 cells using fluorogenic ZMAL as substrate after 90 mins by fluorescence-based assay.
Histone deacetylase 1, sequence (Q13547 whole entry): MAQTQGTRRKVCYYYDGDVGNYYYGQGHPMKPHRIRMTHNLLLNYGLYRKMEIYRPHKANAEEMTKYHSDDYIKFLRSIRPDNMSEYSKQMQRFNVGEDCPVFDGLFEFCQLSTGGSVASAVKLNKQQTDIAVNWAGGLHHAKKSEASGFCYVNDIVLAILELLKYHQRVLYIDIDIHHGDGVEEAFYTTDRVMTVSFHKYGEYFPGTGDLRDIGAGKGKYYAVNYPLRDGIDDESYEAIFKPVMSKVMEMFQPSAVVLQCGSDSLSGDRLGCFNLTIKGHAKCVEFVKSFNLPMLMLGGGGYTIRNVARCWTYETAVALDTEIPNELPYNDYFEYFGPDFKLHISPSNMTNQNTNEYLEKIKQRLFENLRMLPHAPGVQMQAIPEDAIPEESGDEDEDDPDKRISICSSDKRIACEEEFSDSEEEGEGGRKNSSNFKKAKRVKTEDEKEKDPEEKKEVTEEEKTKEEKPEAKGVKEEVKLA
Data set [4] can be described thus: Inhibition of class 1 HDAC in human NB4 cells assessed as levels of histone H3 acetylation at lysine 9/14 at 5 uM after 30 hrs by Western blot analysis relative to control.
Data set [5] in a line: Inhibition of class 1 HDAC in human U87 cells assessed as levels of histone H3 acetylation at lysine 9/14 at 1 uM after 30 hrs by Western blot analysis relative to control. To be noted: u87, 30 h.
Data set [6] can be described thus: Inhibition of class 1 HDAC in human U87 cells assessed as levels of histone H3 acetylation at lysine 9/14 at 5 uM after 30 hrs by Western blot analysis relative to control. The conditions noted are these: u87, 30 h.
For data set [7], the target named is T3, Protein deacetylase HDAC6 (Homo sapiens) (UniProt Q9UBN7).
T3 sequence (whole entry): T2 sequence (Q9UBN7 whole entry)
Put plainly: Inhibition of HDAC6 in human U87 cells assessed as increase in levels of alpha-tubulin acetylation after 30 hrs by Western blot analysis. The format is cell-based. Background: Immunoblotting shows a protein as a band on a membrane.

Data set [8] in a line: Inhibition of class 1 HDAC in human SH-SY5Y cells assessed as levels of histone H3 acetylation at lysine 9/14 at 1 uM after 30 hrs by Western blot analysis relative to control.
Data set [9] is described as follows: Inhibition of class 1 HDAC in human SH-SY5Y cells assessed as levels of histone H3 acetylation at lysine 9/14 at 5 uM after 30 hrs by Western blot analysis relative to control.
Data set [10] concerns NB-4. As to the kind of experiment: Induction of cell death in human NB4 cells assessed as DNA fragmentation at 5 uM after 30 hrs by propidium iodide-based FACS analysis. The format is functional.
Data set [11] has as its target T3, Protein deacetylase HDAC6 (Homo sapiens). As to the kind of experiment: Inhibition of HDAC6 in human SH-SY5Y cells assessed as reduction in cell migration at 5 uM measured every 2 mins for 4 days by RTCA based assay.
Data set [12] can be described thus: Cytotoxicity against mouse NIH/3T3 cells assessed as reduction in cell viability by neutral red uptake test. The format is cell-based, NIH3T3. To be noted: read-out: TC50 (the source's name).
Data set [13] has as its target T3, Protein deacetylase HDAC6 (Homo sapiens). As to the kind of experiment: Inhibition of HDAC6 in human SH-SY5Y cells assessed as increase in levels of alpha-tubulin acetylation after 30 hrs by Western blot analysis. The format is cell-based.
The test system of data set [14] is NB-4. As to the kind of experiment: Induction of cell cycle arrest in human NB4 cells assessed as accumulation at G1 phase after 30 hrs by propidium iodide-based FACS analysis. The format is functional.
For data set [15], the species on record is Homo sapiens. As to the kind of experiment: Selectivity ratio of IC50 for human recombinant C-terminal His/FLAG-tagged full length HDAC2 to IC50 for human recombinant N-terminal GST-tagged full length HDAC6.
For data set [16], the species on record is Homo sapiens. Put plainly: Selectivity ratio of IC50 for human recombinant C-terminal His-tagged full length HDAC3/NcoR2 to IC50 for human recombinant N-terminal GST-tagged full length HDAC6.
The subject of data set [17] is NB-4. As to the kind of experiment: Induction of cell cycle arrest in human NB4 cells assessed as accumulation at G1 phase at 5 uM after 30 hrs by propidium iodide-based FACS analysis. The format is functional. (A flow cytometer gives signals particle by particle.)

SMILES strings stand for the structures. Calls of active or inactive are those of the source. No cut-off for these calls is given here.

What is called IC50 is the concentration at which inhibition is half-maximal. Turning to `O=C(NO)c1ccc(CN2CC3(CCCCC3)c3ccccc32)cc1`, the FC in data set [1] turned out to be 2.27; in data set [4], 2.58; in data set [5], 1.77; in data set [6], 2.21. Also, the IC50 on Histone deacetylase 8 was 253 nM; in data set [3], 40.9 nM; at Histone deacetylase 1, 6790 nM. Also, in the data set filed under Homo sapiens [2], the Ratio IC50 was determined as 166. Also, in data set [7], the inhibition result was “Dose-dependent effect”.
Regarding `CN1CCc2c(c3ccccc3n2Cc2ccc(C(=O)NO)cc2)C1` [TUBASTATIN A], the FC in data set [1] is 0.84; in data set [4], 0.97; in data set [5], 1.68 to 1.97; in data set [6] it was 2.18 to 2.38; in [8], 1.13; in data set [9], 1.17.
As for `CC(=O)N1CCC2(CC1)CN(Cc1ccc(C(=O)NO)cc1)c1ccccc12`, the Ratio IC50 in the data set listed under Homo sapiens [2] turned out to be 116. For the same compound, the IC50 in data set [3] amounted to 62.5 nM; at Histone deacetylase 1, 7290 nM.
With `CC(C)(C)OC(=O)N1CCC2(CC1)CN(Cc1ccc(C(=O)NO)cc1)c1ccccc12`, the FC is on record as 1.12 in data set [1]; 0.96 in [4]; 2.74 in data set [5]; 2.12 in data set [6]; 1.1 in data set [8]; 1.11 in [9]. Also, the IC50 amounted to 1600 nM at Histone deacetylase 8, 41.9 nM in data set [3] and 4000 nM at Histone deacetylase 1. Besides, the Ratio IC50 in the data set listed under Homo sapiens [2] stood at 95. In addition, the result with NB-4 [10] was Active. For the same compound, the inhibition result in [11] was “Active”. For the same compound, the CC50 in data set [12] is 23000 nM. Besides, the inhibition entry in data set [13] was “Dose-dependent effect”.
In the case of `O=C(CCCCCCC(=O)Nc1ccccc1)NO`, the result with NB-4 [14] was Active.
In the case of `CN1CCC2(CC1)CN(Cc1ccc(C(=O)NO)cc1)c1ccccc12`, the FC in data set [1] is listed as 1.02; in [4], 2.44; in [5], 1.83; in data set [6], 1.6. For the same compound, the Ratio IC50 in the data set listed under Homo sapiens [2] amounted to 57. Further, the IC50 in data set [3] was determined as 204 nM; on Histone deacetylase 1, 11700 nM. Further, the inhibition entry in data set [7] is “Dose-dependent effect”.
In the case of `O=C(CCCCCCNC(=O)c1cnc(N(c2ccccc2)c2ccccc2Cl)nc1)NO`, the Ratio IC50 in the data set listed under Homo sapiens [2], in the data set filed under Homo sapiens [15] and in the data set listed under Homo sapiens [16] was 10 throughout.
`O=C(CCCCCCNC(=O)c1cnc(N(c2ccccc2)c2ccccc2)nc1)NO`: the Ratio IC50 in the data set filed under Homo sapiens [2], in the data set listed under Homo sapiens [15] and in the data set listed under Homo sapiens [16] was 10 throughout.
Turning to `CC(C)(C)OC(=O)N1CCC2(CC1)CN(Cc1ccc(C(=O)NO)s1)c1ccccc12`, the 50% inhibitory concentration (IC50) at Histone deacetylase 8 came to 1340 nM; in data set [3], 719 nM; at Histone deacetylase 1, 10900 nM. In addition, the Ratio IC50 in the data set filed under Homo sapiens [2] amounted to 15.
As to `CN1CCC2(CC1)CN(Cc1ccc(C(=O)NO)s1)c1ccccc12`, the Ratio IC50 in the data set listed under Homo sapiens [2] turned out to be 6. The IC50 in data set [3] turned out to be 1780 nM; on Histone deacetylase 1, 11400 nM.
Take `CC(C)(C)C(=O)N1CCC2(CC1)CN(Cc1ccc(C(=O)NO)cc1)c1ccccc12`: in the data set listed under Homo sapiens [2], the Ratio IC50 worked out at 74. The IC50 in data set [3] came out at 60.1 nM; at Histone deacetylase 1 it was 4470 nM. The result in the data set on NB-4 [17] was Active.

The values above are taken from ChEMBL document CHEMBL4270593, “Novel spiroindoline HDAC inhibitors: Synthesis, molecular modelling and biological studies” (Eur J Med Chem, 2018).
